These results are taken from patent US10001485B2, “Methods for sensitizing a quiescent cancer stem cell to a BCR-ABL inhibitor” (The Regents of the University of California, priority 2011, dated 2018).

For one assay, the system named is BCL2 and MCL1. Put plainly: Bone marrow BCL2, MCL1 and Ki67 IHC analysis of treated engrafted marrow. Format: in vivo, RAG2−/−γc−/− mice. Particulars: following sabutoclax treatment; data not shown. How it is done: For IHC, femurs were harvested from transplanted, treated animals, fixed and decalcified in Cal-Ex II (Fisher Scientific, Fair Lawn, N.J.) for 48 hrs, followed by standard tissue processing, paraffin-embedding and sectioning. Paraffin tissue sections were deparaffinized, rehydrated, and boiled in antigen retrieval solution (BD, California) (pH 6.0) for 10 min to retrieve antigen. Tissues were blocked with 5% bovine serum albumin (BSA) and 0.25% Triton X-100 in PBS for 30 min and incubated with primary antibody in PBS with 1% BSA at 4° C. for 16 h. Primary antibodies used were human CD45 (Abcam) and ki67 (BD). IHC staining was then carried out with LSAB System-HRP Kit (Dako Cytomation, Hamburg, Germany) according to manufacturer's protocol using methyl green (Sigma Aldrich) as counterstaining. […] All sections were mounted before examination using a Nikon Eclipse E600 microscope. […]
Bone specimens were fixed and mildly decalcified in Bouin's solution (Sigma-Aldrich, St. Louis, Mo.) for 8 h at room temperature, then postfixed in zinc-containing buffered formalin (Z-Fix; Anatech Ltd., Battle Creek, Mich.) for 3 days at 4° C., and embedded in paraffin. […] The Spectrum Analysis algorithm package and ImageScope analysis software (version 9; Aperio Technologies, Inc.) were applied to quantify IHC stainings.

Assay [1] has as its system BC LSC (human BC CML CD34+CD38+ progenitors). As to the kind of experiment: BC LSC engraftment in vivo (FACS) in mice transplanted with human BC CML CD34+ cells. Also noted: species or system RAG2−/−γc−/− mice. As to conditions: for Mean (SEM) engraftment of CD34+CD38+ cells, Blood / Mean (SEM) engraftment of CD34+CD38+ cells, Marrow / Mean (SEM) engraftment of CD34+CD38+ cells, Spleen: 2 weeks; for effect on marrow LSC engraftment compared to vehicle treated controls: lower doses: sabutoclax 1.25 mg/kg, dasatinib 25 mg/kg. The text has this:
(§1) Immunocompromised RAG2^−/−yc^−/− mice were bred and maintained in the University of California San Diego Moores Cancer Center vivarium. Neonatal mice were transplanted intrahepatically with 50,000-200,000 CD34^+ cells according to our previously published methods (see Jaiswal, S. et al. cited above and Jamieson, C. H., et al. cited above). Transplanted mice were screened for tumor formation or human engraftment in peripheral blood by FACS at 6-8 weeks post-transplant. Upon detection of tumors, peripheral blood engraftment, or at 8-12 weeks post-transplant engrafted mice were treated for 2 weeks with dasatinib (daily, 50 mg/kg/day in 50% PEG, 50% PBS by oral gavage), sabutoclax (3 days per week, 5 mg/kg/day in 10% EtOH, 10% Cremaphor EL (Sigma Aldrich) 80% PBS by IP injection), or drug vehicles. Twenty-four hours post-treatment (10-14 weeks post-transplant), mice were euthanized and single cell suspensions of hematopoietic tissues were analyzed for human engraftment by FACS as described previously (see Jaiswal, S. et al. and Jamieson, C. H., et al. cited above). For in vivo combination studies, dasatinib was used at 25 or 50 mg/kg while sabutclax was used at 1.25 or 2.5 mg/kg with the same dosing regimen described above. For serial transplantation, a mix of whole mouse bone marrows was made from mice in the same treatment group. Total bone marrow cells were then counted by using Guava ViaCount Reagent and analysis on a Guava PCA system (Millipore), and transplanted in equal numbers into secondary neonatal recipients by intrahepatic injection. 250,000 whole bone marrow cells per mouse were injected.

A further assay relates to BC LSC-engrafted marrow. Put plainly: TUNEL apoptosis analysis of engrafted bone marrow. As to conditions: following sabutoclax treatment. Format: in vivo, RAG2−/−γc−/− mice. The text has this:
For apoptosis analysis, bone marrows are stained using the ApopTag fluorescein in situ TUNEL apoptosis detection kit (Chemicon, #S7110) following the manufacturer's protocol. Sections are mounted as above. Images are acquired using an Applied Imaging Ariol SL-50 automated scanning microscope and image analysis system.

In another assay the test system is BC LSC. Put plainly: Serial transplantation of treated bone marrow into secondary recipients, survival. Format: in vivo, RAG2−/−γc−/− mice.
Excerpt: as §1

The next assay deals with marrow-engrafted BC LSC. As to the kind of experiment: FACS cell cycle analysis (Ki-67/7-AAD) of bone marrow engrafted BC CML cells. Type of assay: in vivo, RAG2−/−γc−/− mice. Particulars: FIG. 7. The text has this:
Single cell suspensions of bone marrow cells from mice treated with sabutoclax or vehicle were immunostained with Alexa405-conjugated anti-human CD45 (Invitrogen), Alexa647-anti-human CD38 (Ab Serotec) and biotin-anti-human CD34 (Invitrogen) plus Alexa488-strepavidin (Invitrogen) in 2% fetal bovine serum/PBS-followed by live cell staining using the LIVE/DEAD® Fixable Near-IR Dead Cell Stain Kit (Invitrogen). Surface stained cells were then fixed in 70% ethanol overnight. […] Stained samples were analyzed using a FACSAria and FlowJo.

Where [2] appears, read: High dose treatment (sabutoclax 2.5 mg/kg, dasatinib 50 mg/kg).
[3] abbreviates: Low dose treatment (sabutoclax 1.25 mg/kg, dasatinib 25 mg/kg).

Turning to `Cc1cc2c(C(=O)NC[C@H](C)c3ccccc3)c(O)c(O)cc2c(O)c1-c1c(C)cc2c(C(=O)NC[C@H](C)c3ccccc3)c(O)c(O)cc2c1O` [Sabutoclax], the “BCL2 and MCL1 immunopositive cells in BC LSC-engrafted marrow” value in the assay with BCL2 and MCL1 is “reduced amount”. In assay [1] (5 mg/kg, FIG. 5b), the “LSC engraftment in all hematopoietic tissues including bone marrow” value is “significantly reduced”. In addition, in assay [1] (setting [2]), the “Mean (SEM) engraftment of CD34+CD38+ cells, Blood” value (“Mean (SEM) engraftment … Blood” for short) is on record as 24.5 (17.6); the “Mean (SEM) engraftment of CD34+CD38+ cells, Marrow” value (“Mean (SEM) engraftment … Marrow” for short) is recorded as 30.01 (23.2); the “Mean (SEM) engraftment of CD34+CD38+ cells, Spleen” value (from here on “Mean (SEM) engraftment … Spleen”) is on record as 5.1 (1.5). In addition, in assay [1] (setting [3]), the “Mean (SEM) engraftment … Blood” value is 11.0 (3.8); the “Mean (SEM) engraftment … Marrow” value is 34.2 (12.5); the “Mean (SEM) engraftment … Spleen” value was 12 (2.7). The “effect on marrow LSC engraftment compared to vehicle treated controls” value in assay [1] is reported as “no significant effect”. In addition, the “TUNEL+ apoptotic cells in engrafted marrow” value in the assay on BC LSC-engrafted marrow was “increased”. For the same molecule, the “2° TP - Median survival” value in the assay on BC LSC (High dose treatment) is 45 days. The “2° TP - Median survival” value with BC LSC (Low dose treatment) worked out at 74 days. In the assay on marrow-engrafted BC LSC, the “G2/S cells in engrafted marrow” value is “slight increase”.
`Cc1nc(Nc2ncc(C(=O)Nc3c(C)cccc3Cl)s2)cc(N2CCN(CCO)CC2)n1` [Dasatinib, dasatinib]: in assay [1] (setting [2]), the “Mean (SEM) engraftment … Blood” value was 3.1 (2.4); the “Mean (SEM) engraftment … Marrow” value was 21.23 (2.4); the “Mean (SEM) engraftment … Spleen” value is recorded as 0.2 (0.07). Moreover, in assay [1] (setting [3]), the “Mean (SEM) engraftment … Blood” value is listed as 2.1 (0.9); the “Mean (SEM) engraftment … Marrow” value is recorded as 28.8 (10.7); the “Mean (SEM) engraftment … Spleen” value is recorded as 2.0 (0.8). Also, in assay [1], the “effect on marrow LSC engraftment compared to vehicle treated controls” value is reported as “no significant effect”. The “2° TP - Median survival” value in the assay on BC LSC (High dose treatment) turned out to be 43 days. Besides, the “2° TP - Median survival” value in the assay with BC LSC (Low dose treatment) was 79 days.
